Source: the NIST ThermoML archive (doi:10.1016/j.jct.2018.03.011)
± gives the expanded uncertainty stated by the source.

Assays:
[1] = for Normal melting temperature: Crystal; for viscosity / mass density: 101.33 kPa, Liquid; for viscosity: Falling or rolling sphere viscometry; for mass density: Vibrating tube method
[2] = Molar enthalpy of transition or fusion; conditions: Crystal; DSC

Row | SMILES | Molar enthalpy of transition or fusion [2] [kcal/mol] | Normal melting temperature ([1]; DTA) [°C] | viscosity ([1]; 293.2 K) [mPa·s] | mass density ([1]; 293.2 K) [kg/m3] | viscosity ([1]; 308.2 K) [mPa·s] | mass density ([1]; 308.2 K) [kg/m3] | viscosity ([1]; 313.2 K) [mPa·s] | mass density ([1]; 313.2 K) [kg/m3] | viscosity ([1]; 318.2 K) [mPa·s] | mass density ([1]; 318.2 K) [kg/m3] | viscosity ([1]; 323.2 K) [mPa·s] | mass density ([1]; 323.2 K) [kg/m3] | viscosity ([1]; 328.2 K) [mPa·s] | mass density ([1]; 328.2 K) [kg/m3] | viscosity ([1]; 333.2 K) [mPa·s] | mass density ([1]; 333.2 K) [kg/m3] | viscosity ([1]; 338.2 K) [mPa·s] | mass density ([1]; 338.2 K) [kg/m3] | viscosity ([1]; 343.2 K) [mPa·s] | mass density ([1]; 343.2 K) [kg/m3] | further results
1 | CCCCn1cc[n+](C)c1.[Br-] [1-butyl-3-methylimidazolium bromide] |  |  |  |  |  |  |  |  |  |  |  |  |  |  |  |  |  |  |  |  | Normal melting temperature ([1]; visual observation): 79.0 ± 1.1 °C
2 | CCCC[N+]1(C)CCOCC1.[Br-] [4-butyl-4-methylmorpholinium bromide] | 3.54 ± 0.263 | 211.1 ± 1.1 |  |  |  |  |  |  |  |  |  |  |  |  |  |  |  |  |  |  | 
3 | OCCOCCO [diethylene glycol] |  |  | 38.11 ± 3.8 | 1116.4 ± 1.1 | 19.02 ± 1.9 | 1105.7 ± 1.1 | 15.6 ± 1.6 | 1102.1 ± 1.1 | 12.69 ± 1.3 | 1098.5 ± 1.1 | 10.62 ± 1.1 | 1094.8 ± 1 | 8.853 ± 0.89 | 1091.2 ± 1 | 7.362 ± 0.74 | 1087.5 ± 1 | 6.208 ± 0.62 | 1083.8 ± 1 | 5.324 ± 0.54 | 1080.1 ± 1 | viscosity ([1]; 298.2 K): 29.82 ± 3 mPa·s; mass density ([1]; 298.2 K): 1112.8 ± 1.1 kg/m3; viscosity ([1]; 303.2 K): 23.64 ± 2.4 mPa·s; mass density ([1]; 303.2 K): 1109.2 ± 1.1 kg/m3
4 | OCCOCCOCCO [triethylene glycol] |  |  | 48.32 ± 4.9 | 1123.1 ± 1.1 | 23.74 ± 2.4 | 1111.5 ± 1.1 | 19.26 ± 1.9 | 1107.6 ± 1.1 | 16.41 ± 1.6 | 1103.8 ± 1.1 | 13.51 ± 1.4 | 1099.9 ± 1.1 | 11.35 ± 1.1 | 1096 ± 1.1 | 9.602 ± 0.97 | 1092.1 ± 1.1 | 8.278 ± 0.83 | 1088.2 ± 1.1 | 7.351 ± 0.74 | 1084.3 ± 1 | viscosity ([1]; 298.2 K): 37.16 ± 3.8 mPa·s; mass density ([1]; 298.2 K): 1119.2 ± 1.1 kg/m3; viscosity ([1]; 303.2 K): 29.27 ± 2.9 mPa·s; mass density ([1]; 303.2 K): 1115.4 ± 1.1 kg/m3
5 | O=S1(=O)CCCC1 [sulfolane] |  |  |  |  | 9.194 ± 0.92 | 1257.4 ± 1.1 | 8.116 ± 0.82 | 1253 ± 1.1 | 7.201 ± 0.72 | 1248.6 ± 1.1 | 6.439 ± 0.65 | 1244.2 ± 1.1 | 5.772 ± 0.58 | 1239.8 ± 1.1 | 5.199 ± 0.52 | 1235.5 ± 1.1 | 4.714 ± 0.47 | 1231.1 ± 1.1 | 4.268 ± 0.43 | 1226.7 ± 1.1 | 
6 | CC[N+]1(C)CCOCC1.[Br-] [N-ethyl-N-methylmorpholinium bromide] | 3.99 ± 0.263 | 172.5 ± 5.1 |  |  |  |  |  |  |  |  |  |  |  |  |  |  |  |  |  |  | 
